Experimental data as given in patent US20240115527A1, “CXCR1/CXCR2 INHIBITORS FOR USE IN TREATING MYELOFIBROSIS” (Icahn School of Medicine at Mount Sinai, priority 2020, published 2024).

Assays:
Assay type in all cases: cell-based, human
[1] = tested on: normal donor CD34+ cells; experiment: Proliferation and lineage differentiation of normal donor cells cultured with IL-8, flow cytometry; conditions: incubated with IL-8, FIG. 4A
[2] = tested on: MF CD34+ cells; experiment: Colony forming assay (CFU-GM) of cultured MF CD34+ cells with IL-8
From the text: FIGS. 5A, 5B. 5C, 5D, and 5E illustrate that a CXCR1/CXCR2 inhibitor reverses effects of IL-8 on MF CD34^+ cell colony formation. […] CFU-GM=colony-forming unit-granulocyte-macrophage. FIGS. 5B and 5C illustrate that IL-8 increased CFU-GM colony formation by MF CD34^+ cells in a dose dependent fashion and that the effects of IL-8 were inhibited by treatment with Ladx. FIG. 5B. Normal cells. FIG. 5C. MF cells. […] Con=control. IL-8 concentrations increase from left to right. […] P values were as follows: w/o Ladx: Con vs IL-8—10 ng: 0.159332; Con vs IL-8—20 ng: 0.011976; Con vs IL-8—50 ng: 0.00262; Con vs IL-8—100 ng: 0.00042; w/ 10 μM Ladx: Con vs Ladx: 0.315782; IL-8—10 ng vs plus Ladx: 0.295851; IL-8—20 ng vs plus Ladx: 0.077726; IL-8—50 ng vs plus Ladx: 0.031355; IL-8—100 ng vs plus Ladx: 0.081595.

[3] = tested on: normal CD34+ cells; experiment: Hematopoietic colony formation by normal CD34+ cells with IL-8; conditions: increasing concentrations of IL-8, FIG. 5B
[4] = tested on: MF CD34+ cells; experiment: Clonal assays of MF CD34+ cells; JAK2V617F allele status of picked hematopoietic colonies; conditions: for number of colonies, Heter (JAK2V617F heterozygous) / number of colonies, Homo (JAK2V617F homozygous) / number of colonies, WT (JAK2 wild type) / number of colonies, Wild (JAK2 wild type): no ladarixin
Experimental: Individual hematopoietic colonies were randomly picked from clonal assays of CD34^+ cells from 6 MF cases and the JAK2V617F allele status was determined.
IL-8 alone increased the absolute numbers of JAK2V617F+ colonies, and the addition of Ladarixin reduced the numbers of JAK2V617F positive colonies stimulated by IL-8 (Tables 1-3).

[5] = tested on: MF CD34+, CD41+ and CD33+ cells; experiment: Proliferation and lineage differentiation of MF mononuclear cells cultured with IL-8, flow cytometry; conditions: 50 ng/ml of IL-8, 3 days of incubation, FIG. 4A
Experimental: To evaluate the effects of IL-8 on MF CD34^+ cells proliferation and lineage differentiation, MF mononuclear cells (MNC cells) were cultured with StemSpan™ Serum-Free Expansion Medium (SFEM) containing 20 ng/ml of stem cell factor (SCF), thrombopoietin (TPO), FL-3L and IL-3 with or without 50 ng/ml of IL-8. The cells were harvested after 3 days of incubation. The proportion of hematopoietic cells belonging to specific lineages were determined using flow cytometry.

[6] = tested on: spleen stromal cells; experiment: VEGF mRNA expression by spleen stromal cells after IL-8 silencing; conditions: addition of IL-8, FIG. 3C
From the text: FIGS. 3A, 3B, and 3C illustrate that reduction of IL-8 blocks VEGF, which is involved in the development of splenic endothelial cells (EC)/MF HSC niches. FIGS. 3A and 3B illustrate that LCN2 increases IL-8 and CXCL1 protein and mRNA levels in spleen stromal cells. Con: left bars. LCN2: right bars. FIG. 3C illustrates that IL-8 regulates VEGF expression. si=silencing. Ab=antibody. Con=control.
Lipocalin2 (LCN2) is a cytokine produced by MF marrow myeloid cells. Levels of LCN2 are 2-3 fold greater in the circulation of MF patients as compared to PV and ET patients and even higher as compared to healthy controls. […] IL-8 and the related chemokine CXCL1 are pro-angiogenic creating a cascade of cytokines (VEGF) contributing to the development of splenic EC/MF HSC niches. […] The positive impact of IL-8 on VEGF expression was blocked by an IL-8 neutralizing antibody.

Question: What does the source list for “IL-8: pro-inflammatory cytokine; CXCR1 and CXCR2 are its receptors”?
Answer: percentage of normal donor CD34+, CD41+ and CD33+ cell populations [1]: decreased; numbers of MF CFU-GM colonies ([2]; IL-8 at doses of 50 ng/ml and 100 ng/ml, FIG. 5C): increased; colony output of cultured MF CD34+ cells compared to WT CD34+ cells ([2]; cultured with IL-8, FIG. 5A): enhanced colony output; CFU-GM colony formation by MF samples with the highest expression of CXCR1/CXCR2 ([2]; treatment with IL-8, FIG. 5D): increased; hematopoietic colony formation by normal CD34+ cells [3]: did not affect; absolute numbers of JAK2V617F+ colonies ([4]; IL-8 alone, 6 MF cases): increased; number of colonies, Heter (JAK2V617F heterozygous) ([4]; MF1 CD34+ cells, IL-8 10 ng): 36; number of colonies, Homo (JAK2V617F homozygous) ([4]; MF1 CD34+ cells, IL-8 10 ng): 0; number of colonies, WT (JAK2 wild type) ([4]; MF1 CD34+ cells, IL-8 10 ng): 18; number of colonies, Heter (JAK2V617F heterozygous) ([4]; MF1 CD34+ cells, IL-8 20 ng): 48; number of colonies, Homo (JAK2V617F homozygous) ([4]; MF1 CD34+ cells, IL-8 20 ng): 0; number of colonies, WT (JAK2 wild type) ([4]; MF1 CD34+ cells, IL-8 20 ng): 17; number of colonies, Heter (JAK2V617F heterozygous) ([4]; MF1 CD34+ cells, IL-8 50 ng): 52; number of colonies, Homo (JAK2V617F homozygous) ([4]; MF1 CD34+ cells, IL-8 50 ng): 0; number of colonies, WT (JAK2 wild type) ([4]; MF1 CD34+ cells, IL-8 50 ng): 21; number of colonies, Heter (JAK2V617F heterozygous) ([4]; MF1 CD34+ cells, IL-8 100 ng): 68; number of colonies, Homo (JAK2V617F homozygous) ([4]; MF1 CD34+ cells, IL-8 100 ng): 0; number of colonies, WT (JAK2 wild type) ([4]; MF1 CD34+ cells, IL-8 100 ng): 0; number of colonies, Heter (JAK2V617F heterozygous) ([4]; MF2 CD34+ cells, IL-8 10 ng): 0; number of colonies, Homo (JAK2V617F homozygous) ([4]; MF2 CD34+ cells, IL-8 10 ng): 0; number of colonies, WT (JAK2 wild type) ([4]; MF2 CD34+ cells, IL-8 10 ng): 44; number of colonies, Heter (JAK2V617F heterozygous) ([4]; MF2 CD34+ cells, IL-8 20 ng): 3; number of colonies, Homo (JAK2V617F homozygous) ([4]; MF2 CD34+ cells, IL-8 20 ng): 0; number of colonies, WT (JAK2 wild type) ([4]; MF2 CD34+ cells, IL-8 20 ng): 38; number of colonies, Heter (JAK2V617F heterozygous) ([4]; MF2 CD34+ cells, IL-8 50 ng): 7; number of colonies, Homo (JAK2V617F homozygous) ([4]; MF2 CD34+ cells, IL-8 50 ng): 0; number of colonies, WT (JAK2 wild type) ([4]; MF2 CD34+ cells, IL-8 50 ng): 41; number of colonies, Heter (JAK2V617F heterozygous) ([4]; MF2 CD34+ cells, IL-8 100 ng): 3; number of colonies, Homo (JAK2V617F homozygous) ([4]; MF2 CD34+ cells, IL-8 100 ng): 0; number of colonies, WT (JAK2 wild type) ([4]; MF2 CD34+ cells, IL-8 100 ng): 52; number of colonies, Heter (JAK2V617F heterozygous) ([4]; MF3 CD34+ cells, IL-8 10 ng): 27; number of colonies, Homo (JAK2V617F homozygous) ([4]; MF3 CD34+ cells, IL-8 10 ng): 80; number of colonies, WT (JAK2 wild type) ([4]; MF3 CD34+ cells, IL-8 10 ng): 36; number of colonies, Heter (JAK2V617F heterozygous) ([4]; MF3 CD34+ cells, IL-8 20 ng): 79; number of colonies, Homo (JAK2V617F homozygous) ([4]; MF3 CD34+ cells, IL-8 20 ng): 63; number of colonies, WT (JAK2 wild type) ([4]; MF3 CD34+ cells, IL-8 20 ng): 31; number of colonies, Heter (JAK2V617F heterozygous) ([4]; MF3 CD34+ cells, IL-8 50 ng): 30; number of colonies, Homo (JAK2V617F homozygous) ([4]; MF3 CD34+ cells, IL-8 50 ng): 99; number of colonies, WT (JAK2 wild type) ([4]; MF3 CD34+ cells, IL-8 50 ng): 30; number of colonies, Heter (JAK2V617F heterozygous) ([4]; MF3 CD34+ cells, IL-8 100 ng): 32; number of colonies, Homo (JAK2V617F homozygous) ([4]; MF3 CD34+ cells, IL-8 100 ng): 95; number of colonies, WT (JAK2 wild type) ([4]; MF3 CD34+ cells, IL-8 100 ng): 42; number of colonies, Heter (JAK2V617F heterozygous) ([4]; MF4 CD34+ cells, IL-8 10 ng): 183; number of colonies, Homo (JAK2V617F homozygous) ([4]; MF4 CD34+ cells, IL-8 10 ng): 12; number of colonies, Wild (JAK2 wild type) ([4]; MF4 CD34+ cells, IL-8 10 ng): 0; number of colonies, Heter (JAK2V617F heterozygous) ([4]; MF4 CD34+ cells, IL-8 20 ng): 171; number of colonies, Homo (JAK2V617F homozygous) ([4]; MF4 CD34+ cells, IL-8 20 ng): 0; number of colonies, Wild (JAK2 wild type) ([4]; MF4 CD34+ cells, IL-8 20 ng): 0; number of colonies, Heter (JAK2V617F heterozygous) ([4]; MF4 CD34+ cells, IL-8 50 ng): 190; number of colonies, Homo (JAK2V617F homozygous) ([4]; MF4 CD34+ cells, IL-8 50 ng): 0; number of colonies, Wild (JAK2 wild type) ([4]; MF4 CD34+ cells, IL-8 50 ng): 0; number of colonies, Heter (JAK2V617F heterozygous) ([4]; MF4 CD34+ cells, IL-8 100 ng): 174; number of colonies, Homo (JAK2V617F homozygous) ([4]; MF4 CD34+ cells, IL-8 100 ng): 12; number of colonies, Wild (JAK2 wild type) ([4]; MF4 CD34+ cells, IL-8 100 ng): 12; number of colonies, Heter (JAK2V617F heterozygous) ([4]; MF5 CD34+ cells, IL-8 10 ng): 0; number of colonies, Homo (JAK2V617F homozygous) ([4]; MF5 CD34+ cells, IL-8 10 ng): 0; number of colonies, Wild (JAK2 wild type) ([4]; MF5 CD34+ cells, IL-8 10 ng): 124; number of colonies, Heter (JAK2V617F heterozygous) ([4]; MF5 CD34+ cells, IL-8 20 ng): 0; number of colonies, Homo (JAK2V617F homozygous) ([4]; MF5 CD34+ cells, IL-8 20 ng): 0; number of colonies, Wild (JAK2 wild type) ([4]; MF5 CD34+ cells, IL-8 20 ng): 142; number of colonies, Heter (JAK2V617F heterozygous) ([4]; MF5 CD34+ cells, IL-8 50 ng): 0; number of colonies, Homo (JAK2V617F homozygous) ([4]; MF5 CD34+ cells, IL-8 50 ng): 0; number of colonies, Wild (JAK2 wild type) ([4]; MF5 CD34+ cells, IL-8 50 ng): 115; number of colonies, Heter (JAK2V617F heterozygous) ([4]; MF5 CD34+ cells, IL-8 100 ng): 0; number of colonies, Homo (JAK2V617F homozygous) ([4]; MF5 CD34+ cells, IL-8 100 ng): 0; number of colonies, Wild (JAK2 wild type) ([4]; MF5 CD34+ cells, IL-8 100 ng): 115; number of colonies, Heter (JAK2V617F heterozygous) ([4]; MF6 CD34+ cells, IL-8 10 ng): 0; number of colonies, Homo (JAK2V617F homozygous) ([4]; MF6 CD34+ cells, IL-8 10 ng): 0; number of colonies, Wild (JAK2 wild type) ([4]; MF6 CD34+ cells, IL-8 10 ng): 115; number of colonies, Heter (JAK2V617F heterozygous) ([4]; MF6 CD34+ cells, IL-8 20 ng): 0; number of colonies, Homo (JAK2V617F homozygous) ([4]; MF6 CD34+ cells, IL-8 20 ng): 0; number of colonies, Wild (JAK2 wild type) ([4]; MF6 CD34+ cells, IL-8 20 ng): 131; number of colonies, Heter (JAK2V617F heterozygous) ([4]; MF6 CD34+ cells, IL-8 50 ng): 8; number of colonies, Homo (JAK2V617F homozygous) ([4]; MF6 CD34+ cells, IL-8 50 ng): 0; number of colonies, Wild (JAK2 wild type) ([4]; MF6 CD34+ cells, IL-8 50 ng): 125; number of colonies, Heter (JAK2V617F heterozygous) ([4]; MF6 CD34+ cells, IL-8 100 ng): 12; number of colonies, Homo (JAK2V617F homozygous) ([4]; MF6 CD34+ cells, IL-8 100 ng): 0; number of colonies, Wild (JAK2 wild type) ([4]; MF6 CD34+ cells, IL-8 100 ng): 87; percentage of MF CD34+, CD41+ and CD33+ cells [5]: increased; effect on decrease of VEGF mRNA expression caused by silencing of IL-8 [6]: reversed this effect
